Reference: article PMC9704104, “Towards safer anti-inflammatory therapy: synthesis of new thymol–pyrazole hybrids as dual COX-2/5-LOX inhibitors” (Journal of Enzyme Inhibition and Medicinal Chemistry, 2022)
Where “and” joins values, the source holds several entries; their conditions need not be identical. Equal values may be shown once. Entries after “also recorded” stand apart in the source; their conditions may differ.

Tests used:
[1] = test system: 5-LOX; assay: In vitro 5-LOX inhibitory assay (Abnova 5-LOX inhibitor screening assay kit); assay type: biochemical
Text: The newly synthesised compounds were screened for their ability to inhibit 5-LOX enzymes. […] (Page: S21, Supplementary file). […]
In vitro LOX inhibitory assay
Inhibitor Screening Assay Kit detects and measures the hydroperoxides produced in the lipoxygenation reaction using a purified LOX. The detection reaction is equally sensitive to hydroperoxides at various positions within the fatty acid and will work with fatty acids of any carbon length. It is thus a general detection method for 5-LOX and can be used to screen libraries of compounds for those which inhibit 5 -LOX enzymes.
1) Blank Wells- add 100 µL of assay buffer to at least two wells.
2) Positive Control Wells- Lipoxygenase (15-LO standard) add 90 µL 15-LO and 10 µL of assay buffer […]
3) 100% Initial Activity Wells- add 90 µL 15-LO and 10 µL of solvent (DMSO) (the same solvent to dissolve the inhibitor) to two wells. The 100% initial activity wells should result in approximately 10 […]
4) Inhibitor Wells- add 90 µL of sample and I10 µL of inhibitor to two wells.
5) Initiate the reaction by adding 10 µL of substrate (either arachidonic acid or linoleic acid) to all the wells. Place the 96-well plate on a shaker for at least five minutes.
6) Add 100 µL of chromogen to each well to stop enzyme catalysis and develop the reaction. Cover with a plate cover and place the 96-well plate on a shaker for at least five minutes.
7) Remove the cover and read the absorbance at 490-500 nm using a plate reader.
Inhibitors were dissolved in DMSO. The inhibitors were added to the assay in a final volume of 10 µL before initiating with substrate. Three concentrations were prepared (25, 50 and 100 µM) to determine the concentration produced 50% enzyme inhibition.
2) The absorbance of blank wells was subtracted from absorbance of the 100% Initial activity and the […]

[2] = test system: formalin-induced rat paw oedema; assay: Formalin-induced paw oedema test (acute inflammation model); assay type: in vivo; conditions: for Volume of oedema (ml) 4h: 4 h after formalin; for Volume of oedema (ml) 4h / inhibition in vivo at 5 mg/kg / % Relative potency (4h) celecoxib / % Relative potency (4h) diclofenac / Volume of oedema (ml) 0: individual rats 1-3; for Volume of oedema (ml) 4h / inhibition in vivo at 5 mg/kg / % inhibition of paw oedema compared with reference drugs (in words) / Volume of oedema (ml) 0: 5 mg/kg orally; for inhibition in vivo at 5 mg/kg: Rattus norvegicus, po, read-out: % Inhibition of oedema volume; for inhibition in vivo at 5 mg/kg / % inhibition of paw oedema compared with reference drugs (in words): 4 h; for % Relative potency (4h) celecoxib, Mean ± SD / % Relative potency (4h) celecoxib: relative to % inhibition of celecoxib at 4 h; for % Relative potency (4h) celecoxib, Mean ± SD / % Relative potency (4h) diclofenac, Mean ± SD: group mean ± SD; for % Relative potency (4h) diclofenac, Mean ± SD / % Relative potency (4h) diclofenac: relative to % inhibition of diclofenac at 4 h; for % inhibition of paw oedema compared with reference drugs (in words): comparison with celecoxib or diclofenac sodium
Method: Animals Adult female albino rats weighing 150-250 g were used (Experimental Animal Centre in Alexandria University). All animals accessed to food and water ad libitum and were housed in 12 h dark/light cycle in a controlled condition at 23-250C. They were allowed to acclimatize for 1 week prior to experimentation. Procedures involving animals and their care were conducted in conformity with the Guide for the Care and Use of Laboratory Animals published by US National Institute of Health4 (NIH publication No. 83-23, revised) and following the ethical guidelines of Alexandria University on laboratory animals. In all tests, adequate considerations were adopted to reduce pain or discomfort of animals (Approved by AlexU-IACUC) 3. […]
Formalin-induced paw edema test (acute inflammation model):
A solution of freshly prepared formalin 5% was used as a phlogistic agent. A mark was made on the lateral malleolus of the rats’ paws delineating the injection sites. The initial volume of paw was measured by means of digital calibrated Vernier caliper .
After 45 minutes, 40 μl formalin were injected subcutaneously into the sub plantar tissue of the right hind paw of all groups under light ether anesthesia . An equal volume of saline was injected into the left hind paw and served as internal control for the degree of inflammation in the right hind paw. 5, 6 The volume of paw was measured in different treatment groups, 4 h following the formalin injection and the amount of increase in paw volume (edema volume) was calculated by subtracting the volumes before and 4 h after the injection of formalin. Edema was expressed as an increase in the volume of paw, and the percentage of edema inhibition (or percent protection against inflammation) for each rat and each group was calculated according to the following equation: […]
Where Vt is the mean volume of edema at specific time interval (4 h) and Vo is the mean volume of edema […]
Relative potency of the tested compounds was expressed as % inhibition of edema for the tested compounds

[3] = target: T1, COX-1 (Ovis aries, UniProt P05979); assay: In vitro COX-1 inhibitory assay (Cayman colorimetric COX (ovine) inhibitor screening assay kit); assay type: biochemical; conditions: mean of three replicates ± SD
T1 construct: purchased Cayman chemicals 560131
T1 sequence (P05979 25-600): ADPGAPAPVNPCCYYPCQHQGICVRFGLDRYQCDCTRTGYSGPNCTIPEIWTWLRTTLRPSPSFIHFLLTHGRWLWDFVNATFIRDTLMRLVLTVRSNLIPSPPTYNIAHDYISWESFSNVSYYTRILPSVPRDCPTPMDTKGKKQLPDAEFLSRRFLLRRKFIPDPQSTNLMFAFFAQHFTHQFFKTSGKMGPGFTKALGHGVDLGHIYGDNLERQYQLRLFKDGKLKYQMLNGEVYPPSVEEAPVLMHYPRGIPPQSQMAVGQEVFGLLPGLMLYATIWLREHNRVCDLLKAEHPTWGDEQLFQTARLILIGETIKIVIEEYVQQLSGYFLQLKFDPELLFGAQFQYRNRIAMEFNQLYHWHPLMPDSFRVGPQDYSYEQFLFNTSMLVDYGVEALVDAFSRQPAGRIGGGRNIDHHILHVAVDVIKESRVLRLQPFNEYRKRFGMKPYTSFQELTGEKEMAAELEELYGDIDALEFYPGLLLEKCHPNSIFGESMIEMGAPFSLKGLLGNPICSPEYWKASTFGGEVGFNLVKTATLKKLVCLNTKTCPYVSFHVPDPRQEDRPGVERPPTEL
Method: (Page: S20, Supplementary file).
Anti-inflammatory activity
In vitro COX-1 and COX-2 inhibitory assay […]
supplied by Cayman chemicals, Ann Arbor, MI, USA according to reported method 1. The colorimetric COX inhibitor screening assay utilizes the peroxidase component of cyclooxygenase. The peroxidase activity was assayed calorimetrically by monitoring the appearance of oxidized N,N,N',N'-tetramethyl-1,4-phenylenediamine (TMPD) at 590nm. The appearance of reagent was carried out following the instructions […]
The half- maximal inhibitor concentrations (IC50µM) were determined and the selectivity index (SI) values were calculated as IC50 (COX-1)/IC50 (COX-2).
1) Background wells- 160 µL of assay buffer and 10 µL of heme were added to background wells.
2) The 100% Initial activity wells- 150 µL of assay buffer, 10 µL of heme and 10 µL of enzyme (COX-1 or COX-2) were added.
3) Inhibitor well- 150 µL of assay buffer, 10 µL of heme and 10 µL of enzyme were added.
4) 10 µL of inhibitor (3 concentrations) in DMSO was added to the inhibitor wells to yield a final […]
5) 10 µL of solvent (DMSO) was added to the 100% Initial activity wells and background wells.
7) 20 µL of colorimetric substrate solution (TMPD) was added to all wells.
8) 20 µL of arachidonic acid was added to all wells to yield a final concentration of 100 µM.
10) The absorbance was measured at 590 nm using a plate reader.
The calculations were carried out in the following manner:
1) The average absorbance of all samples was determined.
2) The absorbance of background wells was subtracted from absorbance of the 100% Initial activity […]
3) Percent inhibition = (100% Initial activity – Inhibitor wells/ 100% Initial activity)∗ 100 […]
Place the 96-well plate on a shaker for at least five minutes. […]

[4] = test system: gastric mucosa; assay: In vivo gastric ulcerogenic activity (gross examination of gastric mucosa); conditions: fasted rats, 60 mg/kg orally, six hours after treatment, 60 mg/kg
Method: Compounds were evaluated for acute gastric ulcerogenic effect in adult female Wistar rats. Gross examination was performed for any evidence of hyperaemia, haemorrhage, definite haemorrhagic erosion, or ulcer according to reported procedures[49]^,[51]
Compounds were evaluated for acute gastric ulcerogenic effect in adult female Wistar rats. Rats (150–250 g)
were divided into groups of six rats each and test compounds, references or DMSO as control were
administered orally at a dose of 60 mg/kg body weight (three times the previously used dose). Six hours after
the treatment they were sacrificed under deep ether anesthesia and their stomachs were removed and opened
through greater curvature, washed under running water and fixed in saline solution. Gross examination was
performed for any evidence of hyperemia, hemorrhage, definite hemorrhagic erosion or ulcer 6, 7 (Approved
The degree of ulcerogenicity was determined by viewing the gastric epithelial ulceration using a 5x
magnifying lens and rated by ulcer score.
Ulcer score was used to grade the incidence and severity of the lesions such as:
1) Shedding of epithelium—10
2) Petechial and frank hemorrhages—20
4) More than two ulcers—40

Structure (SMILES)	IC50 [1] [µM]	IC50 [3] [µM]	melting point [°C]	Volume of oedema (ml) 4h ([2]; 5 mg/kg) [mL]	inhibition in vivo at 5 mg/kg [2] [%]	% Relative potency (4h) celecoxib, Mean ± SD [2] [%]	% Relative potency (4h) celecoxib [2]	% Relative potency (4h) diclofenac, Mean ± SD [2] [%]	% Relative potency (4h) diclofenac [2]	Gross appearance of gastric mucosa (ulcerogenic potential) [4]	% inhibition of paw oedema compared with reference drugs (in words) ([2]; 5 mg/kg)	Volume of oedema (ml) 0 ([2]; 5 mg/kg) [mL]	% inhibition of paw oedema compared with reference drugs (in words) [2]
COc1ccc(-c2cc(C(=O)NN=Cc3c(C)ccc(C(C)C)c3O)[nH]n2)cc1 [Compound 4c, N'-(2-Hydroxy-3-isopropyl-6-methylbenzylidene)-3–(4-methoxyphenyl)-1H-pyrazole-5-carbohydrazide]	2.91 ± 0.068	10.22 ± 0.046	246 to 248	6.20	66.2	165.7 ± 20.01	188.50% and 151.20% and 157.30%	115.6 ± 21.54	140.0% and 107.60% and 99.20%	variable degrees of hyperaemia; also recorded: Hyperemia without gross ulceration			
Cc1ccc(C(C)C)c(O)c1C=NNC(=O)c1cc(-c2ccc(Br)cc2)n(-c2ccc(S(N)(=O)=O)cc2)n1 [Compound 8b, 4-(5-(4-Bromophenyl)-3-(2-(2-hydroxy-3-isopropyl-6-methylbenzylidene)hydrazine-1-carbonyl)-1H-pyrazol-1-yl)benzene sulphonamide]	1.58 ± 0.026	13.61 ± 0.096			40.1		114.10% and 86.90% and 93.30%	68.50 ± 14.20	84.80% and 61.90% and 58.80%	No gross ulceration	nearly equal activity to celecoxib; also recorded: slightly less % inhibition than that of Diclofenac sodium	5.02	
Cc1ccc(C(C)C)c(O)c1C=NNC(=O)c1cc(-c2ccc(Br)cc2)n(-c2ccc(Cl)cc2)n1 [Compound 8h, 5-(4-Bromophenyl)-1-(4-chlorophenyl)-N'-(2-hydroxy-3-isopropyl-6-methylbenzylidene)-1H-pyrazole-3-carbohydrazide]	1.97 ± 0.026	12.6 ± 1.36			53.6	140.9 ± 20.93	152.60% and 116.70% and 153.30%	97.67 ± 15.13	113.30% and 83.10% and 96.60%	variable degrees of hyperaemia; also recorded: Hyperemia without gross ulceration		5.02	slightly less % inhibition than that of Diclofenac sodium

Further compounds by falling IC50 [1], results first:

IC50 [1] [µM]	IC50 [3] [µM]	melting point [°C]	Structure (SMILES)	Volume of oedema (ml) 4h ([2]; 5 mg/kg) [mL]	inhibition in vivo at 5 mg/kg [2] [%]	% Relative potency (4h) celecoxib, Mean ± SD [2] [%]	% Relative potency (4h) celecoxib [2]	% Relative potency (4h) diclofenac, Mean ± SD [2] [%]	% Relative potency (4h) diclofenac [2]	Gross appearance of gastric mucosa (ulcerogenic potential) [4]	% inhibition of paw oedema compared with reference drugs (in words) ([2]; 5 mg/kg)	Volume of oedema (ml) 0 ([2]; 5 mg/kg) [mL]	% inhibition of paw oedema compared with reference drugs (in words) [2]
2.78 ± 0.016	12.6 ± 0.46	218 to 220	COc1ccc(-c2cc(C(=O)NN=Cc3c(C)ccc(C(C)C)c3O)nn2-c2ccc(Cl)cc2)cc1 [Compound 8i, 5-(4-Methoxyphenyl)-1-(4-chlorophenyl)-N'-(2-hydroxy-3-isopropyl-6-methylbenzylidene)-1H-pyrazole-3-carbohydrazide]		67.6		192.30% and 183.30% and 210.70%	135.4 ± 6.60	142.90% and 130.50% and 132.80%	variable degrees of hyperaemia; also recorded: Hyperemia without gross ulceration		5.30	double % inhibition exhibited by Celecoxib
1.91 ± 0.053	12.87 ± 0.097	245 to 247	COc1ccc(-c2cc(C(=O)NN=Cc3c(C)ccc(C(C)C)c3O)nn2-c2ccc(S(N)(=O)=O)cc2)cc1 [Compound 8c, 4-(3-(2-(2-Hydroxy-3-isopropyl-6-methylbenzylidene)hydrazine-1-carbonyl)-5-(4-methoxyphenyl)-1H-pyrazol-1-yl)benzenesulfonamide]	5.80	60.4	170.0 ± 9.73	171.80% and 159.50% and 178.70%	117.9 ± 8.39	127.60% and 113.60% and 112.60%				
1.6 ± 0.042	12.1 ± 0.16		Cc1ccc(C(C)C)c(O)c1C=NNC(=O)c1cc(-c2ccccc2)n(-c2ccc(Cl)cc2)n1 [Compound 8g, 1-(4-Chlorophenyl)-N'-(2-hydroxy-3-isopropyl-6-methylbenzylidene)-5-phenyl-1H-pyrazole-3-carbohydrazide]		52.7	148.6 ± 2.99	150.0% and 145.20% and 150.70%	103.3 ± 8.20	111.40% and 103.40% and 95.0%	No gross ulceration			
